Experimental data as given in PMC7708037, “Targeting OGG1 arrests cancer cell proliferation by inducing replication stress” (Nucleic Acids Research, 2020).

Tests used:
[1] = tested on: MCM4 mRNA in A3 cells; assay: Real time PCR of MCM4 mRNA; assay type: cell-based, human; settings: 10 μM, 72 h
Description: RNA was extracted from cultured cells using TRIzol® Reagent (Thermo Fisher Scientific). RNA quantity and quality were assessed by NanoDrop® (ND-1000 V3.7.1; Thermo Fisher Scientific). The High-Capacity cDNA Reverse Transcription Kit (Applied Biosystems) was utilized for cDNA synthesis following the manufacturer's instructions. Two microliters of cDNA at a final concentration of 10 ng/μl were mixed with GoTaq® qPCR MasterMix 1× (Promega) and 1 μM cDNA primers of each pair of primers (F/R) in a final volume reaction of 10 μl. Primers used are listed in Supplementary Table S2. The amplification conditions consisted of an initial step at 95°C for 10 min, followed by 40 cycles of 10 s at 95°C and 1 min at 60°C. Each qPCR was performed in duplicates or triplicates including no-template controls in an Abi QuantStudio 1 Flex Real-Time PCR System (Applied Biosystems). Relative transcript levels for each replication gene, was calculated using the 2ΔΔCt method for qPCR analysis after normalization with the housekeeping gene beta-actin (B-actin-F 5′-CCTGGCACCCAGCACAAT- 3′; B-actin-R 5′ - GGGCCGGACTCGTCATACT-3′).
Figure 6. […] Only genes with a mean normalized count >5 were analyzed. […] Statistical significance was determined using a two-sided unpaired t-test (ns, non-significant, *P < 0.05, **P < 0.01, ***P < 0.001 and ****P < 0.0001).

[2] = tested on: A3 cells; assay: Cell cycle distribution by flow cytometry; assay type: cell-based, human; settings: 10 μM
Description: At the indicated time points, compound/dox treated cells were incubated in medium containing 10 μM 5-ethynyl-2′-deoxyuridine (EdU) (Thermo Fisher, A10044) for 20 min. Next, cells were fixed in cold 70% ethanol overnight. The azide alkyne Huisgen cycloaddition (‘Click reaction’) was carried out according to the Click-iT EdU Imaging Manual (Thermo Fisher) using various fluorescent dyes: Alexa Fluor® 488 azide (Thermo Fisher, A10266), Alexa Fluor® 647 azide (Thermo Fisher, A10277), or TAMRA azide (Thermo Fisher, T10182), depending on assay conditions. […] Data was analyzed using Kaluza® Flow Analysis Software (Beckman Coulter). […]
untreated parental HEK293T. […] Statistical significance was determined using Mann Witney test (**, P<0.01, ***, P<0.001 and ****, P<0.0001 , ns, non-significant).
Supplementary Fig. S6: 8 -oxodG levels and cell cycle distribution. […] The indicated shNT cells were treated with 250 ng/ml doxycycline for 0, 96, or 144 h, and the amount of genomic 8-oxodG was quantified with LC -MS/MS. […] Cells were treated with 10 µM TH5487 or an equivalent volume DMSO for the indicated times, and the cell cycle distribution was determined by flow cytometry. […] A3 shNT (grey), sh2 (blue), and sh3 (red), were treated with 250 ng/ml doxycycline for 48 –120 h, and the cell cycle distribution was determined with flow cytometry. […]

O=C(Nc1ccc(I)cc1)N1CCC(n2c(=O)[nH]c3c(Br)cccc32)CC1 [TH5487]
MCM4 mRNA levels [1]: slight but significant downregulation
Cell cycle distribution [2]: remained largely constant
Sub-G1 population [2]: accumulation in the sub-G1 population
